Like-named read-outs stand apart in the source and are kept apart here.
How the values were obtained:
Type in all cases: in vivo
C. elegans = experiment: Evaluation of test compounds against C. elegans; set-up: key: 9: complete kill in 4 hours; 8: complete kill in 24 hours; 7: markedly reduced motility in approximately 95% of worms in 24 hours; 0: normal motility, same as controls; details: 300 ppm; observed at 4 and 24 hours post-immersion
Protocol: Evaluation of Test Compounds Against C. elegans Cultures of C. elegans (Bristol strain from J. Lewis) are maintained on E. coli lawns on NG Agar Plates at […]. New cultures are established weekly. Nematodes for testing are washed from cultures using Na buffer. Compounds are dissolved in 80% acetone. The test material is micropipetted (25 μl) into a single well of a 96-well sterile tissue culture plate and the solvent allowed to evaporate. A freshly prepared volume (50 μl) of C. elegans in Na buffer is micropipetted into each treated well and several control wells per plate. Plates are incubated at 20° C. Observations for efficacy are made under a dissecting microscope at 4 and 24 hours post-immersion. Immediately prior to reading the plate, it is gently tapped to stimulate the movement of the worms. Activity is judged subjectively, but semi-quantitatively, based on the drug effects on motility of the adults and larvae.

[1] = system: Spodoptera eridania, 2nd instar larvae, southern armyworm; experiment: Southern armyworm (SAW) 2nd instar larvae leaf dip test; details: 300 ppm; observations at 5 days
Description: (§1) Subsequent dilutions are made with water as needed.
Spodoptera eridania, 2nd Instar Larvae, Southern Armyworm (SAW)
A Sieva lima bean leaf expanded to 7-8 cm in length is dipped in the test solution with agitation for 3 seconds and allowed to dry in a hood. The leaf is then placed in a 100×10 mm petri dish containing a damp filter paper on the bottom and ten 2nd instar caterpillars. At 5 days, observations are made of mortality, reduced feeding, or any interference with normal molting.

[2] = system: Lucilia serricata first instar blowfly larvae; experiment: Ectoparasiticide evaluation in Lucilia serricata; details: rate 100 ppm; for mortality at 100 ppm: Lucilia
Protocol: Ectoparasiticide Evaluation of Test Compounds in Lucilia serricata
The test compound is dissolved in acetone to a concentration of 100 ppm. 200 μL is added to three 12 mm filter paper disks in 128 well assay trays and allowed to dry. Approximately 20 first instar blowfly larvae and 200 μL bovine serum are added to the disks. Wells are covered with plastic lids and incubated at about 27° C. Mortality is determined at 24 and 48 hours.

[3] = system: Root-knot nematode, Meloidogyne incognita; details: potted tomato, scored 4 weeks after inoculation
Description: Soil Nematicide Assay Targeting Root-knot Nematode, Meloidogyne incognita on Potted Tomato
The test compound is solubilized in acetone and diluted with water to the required test concentration. Silty loam soil in a 3 inch pot with a 3-week-old tomato transplant is drenched with the test solution. Four thousand root-knot nematode Meloidogyne incognita J2 larvae are dispensed in a aqueous suspension onto the soil. The pots are kept in the greenhouse and 4 weeks following inoculation of the pots, plant roots are washed free of soil and scored for the degree of root galling using the root-knot galling index identified below.

[4] = system: Diabrotica virgifera virgifera Leconte, 2nd instar western corn rootworm; experiment: Western corn rootworm (WCR) soil jar test; details: 50 ppm; mortality counts after 5 days
Protocol: as §1
Diabrotica virgifera virgifera Leconte, 2nd Instar Western Corn Rootworm (WCR)
One cc of fine talc is placed in a 30 mL wide-mouth screw-top glass jar. One mL of the appropriate acetone test solution is pipetted onto the talc so as to provide 1.25 mg of active ingredient per jar. The jars are set under a gentle air flow until the acetone is evaporated. The dried talc is loosened, 1 cc of millet seed is added to serve as food for the insects and 25 mL of moist soil is added to each jar. The jar is capped and the contents thoroughly mixed mechanically. Following this, ten 2nd instar rootworms are added to each jar and the jars are loosely capped to allow air exchange for the larvae. The treatments are held for 5 days when mortality counts are made. Missing larvae are presumed dead, since they decompose rapidly and cannot be found. The concentrations of active ingredient used in this test correspond approximately to 50 kg/ha.

[5] = system: Spodoptera eridania, eggs-southern armyworm; experiment: Southern armyworm eggs (SAW-Eggs) treated diet test; details: 3000 ppm; mortality counts after 7 days
Protocol: as §1
(§2) Spodoptera eridania, Eggs-southern Armyworm and Diabrotica undecimpunctata howardi, Eggs-southern Corn Rootworm (SAW-Eggs) and (SCR-Eggs)
(§3) Wells containing artificial diet are treated with the test solutions and dried. The appropriate insect eggs are then placed in the wells. The wells are covered with vented, adhesive, clear plastic covers. After 7 days, mortality counts are made.

[6] = system: Aphis gossypii, cotton aphid; experiment: Cotton aphid (CA) cotyledon dip test; details: 300 ppm; mortality counts after 5 days
Description: as §1
Aphis gossypii, Cotton Aphid (CA)
Cotton plants at the cotyledon stage are selected and cut back to one plant per pot. A heavily infested leaf is taken from the main colony and placed on top of each cotyledon. The aphids are allowed to transfer to the host plant overnight. At the time of test treatment, the leaf used to transfer the aphids is removed and discarded. The cotyledons are dipped in the test solution and allowed to dry. After 5 days, mortality counts are made.

[7] = system: Tetranychus urticae (OP-resistant strain), 2-spotted spider mite; experiment: 2-spotted spider mite (TSM) plant dip test; details: 300 ppm; mortality counts after 2 days
Protocol: as §1
Tetranychus urticae (OP-resistant Strain), 2-spotted Spider Mite (TSM)
Sieva lima bean plants with primary leaves expanded to 7-8 cm are selected and cut back to one plant per pot. A small piece is cut from an infested leaf taken from the main colony and placed on each leaf of the test plants. This is done about 2 hours before treatment to allow the mites to move over to the test plant to lay eggs. The size of the cut, infested leaf is varied to obtain about 100 mites per leaf. At the time of test treatment, the piece of leaf used to transfer the mites is removed and discarded. The newly-infested plants are dipped in the test solution for 3 seconds with agitation and set in the hood to dry. After 2 days, one leaf is removed and mortality counts are made.

[8] = system: Diabrotica undecimpunctata howardi, eggs-southern corn rootworm; experiment: Southern corn rootworm eggs (SCR-Eggs) treated diet test; details: 1000 ppm; mortality counts after 7 days
Protocol: as §1, §2, §3

[9] = 24 hr, read-out: Percent Mortality 24 hr
[10] = 48 hr, read-out: Percent Mortality 48 hr

Which results are given for `FC(F)=C(F)CCSc1nc2ncccc2s1` [Example 1, 2-[(4,4,3-Trifluoro-3-butenyl)thio]thiazolo[4,5-b]pyridine]?
C. elegans activity rating (motility of adults and larvae) (C. elegans): 7; SAW rating [1]: 0; mortality at 100 ppm [2, 9]: 100%; mortality at 100 ppm [2, 10]: 100%; Galling Index ([3]; rate 10 ppm soil drench): 0 (0); Galling Index ([3]; rate 25 ppm soil drench): 0^1 (0); Galling Index ([3]; rate 50 ppm soil drench): 0^1 (0); WCR rating [4]: 0; SAW Eggs rating [5]: 8; CA rating [6]: 0; TSM rating [7]: 0; SCR Eggs rating [8]: 9

`C=CCSc1nc2ncccc2s1` [Example 2] was tested. Which “C. elegans activity rating (motility of adults and larvae)” value (“C. elegans activity rating” below) (C. elegans) did it give?
The value was 0.

And the SAW rating [1]?
The SAW rating was 0.

And the “Percent Mortality 24 hr” value ([2]; 24 hr)?
The value was 0%.

What about the “Percent Mortality 48 hr” value ([2]; 48 hr) of the same compound?
The value was 0%.

What about the WCR rating [4] of the same compound?
The WCR rating was 1.

And the “SAW Eggs rating” value [5]?
Its value is 0.

What about the CA rating [6] of the same compound?
Its CA rating is 0.

And the TSM rating [7]?
The TSM rating was 0.

And the “SCR Eggs rating” value [8]?
Its value is 0.

`COC(=O)CSc1nc2ncccc2s1` [Example 4] was tested. Which “C. elegans activity rating” value (C. elegans) did it give?
The value was 9.

And the SAW rating [1]?
The SAW rating was 0.

What about the WCR rating [4] of the same compound?
Its WCR rating is 0.

What about the “SAW Eggs rating” value [5] of the same compound?
The value was 0.

And the CA rating [6]?
The CA rating was 0.

What about the TSM rating [7] of the same compound?
The TSM rating was 0.

And the “SCR Eggs rating” value [8]?
Its value is 0.

For `CCOC(=O)CSc1nc2ncccc2s1` [Example 5], which “C. elegans activity rating” value (C. elegans) is on record?
The value was 9.

And the SAW rating [1]?
The SAW rating was 0.

And the WCR rating [4]?
The WCR rating was 0.

What about the CA rating [6] of the same compound?
The CA rating was 0.

And the TSM rating [7]?
The TSM rating was 0.

And the “SCR Eggs rating” value [8]?
The value was 0.

With `CCOC(=O)C(C)Sc1nc2ncccc2s1` (centres unmarked) [Example 6] as the compound, how does the “C. elegans activity rating” value (C. elegans) read?
Its value is 9.

And the SAW rating [1]?
Its SAW rating is 0.

And the “Percent Mortality 24 hr” value ([2]; 24 hr)?
The value was 0%.

What about the “Percent Mortality 48 hr” value ([2]; 48 hr) of the same compound?
The value was 0%.

What about the WCR rating [4] of the same compound?
Its WCR rating is 0.

And the “SAW Eggs rating” value [5]?
The value was 9.

What about the CA rating [6] of the same compound?
The CA rating was 0.

And the TSM rating [7]?
Its TSM rating is 0.

What about the “SCR Eggs rating” value [8] of the same compound?
The value was 0.

How did the SAW rating [1] turn out when `FC(F)(Br)Sc1nc2ncccc2s1` [Example 7, 2-[(Bromodifluoromethyl)thio]thiazolo[4,5-b]pyridine] was run?
The SAW rating was 0.

And the mortality at 100 ppm [2, 9]?
The mortality at 100 ppm was 80%.

And the mortality at 100 ppm [2, 10]?
The mortality at 100 ppm was 100%.

And the WCR rating [4]?
The WCR rating was 9.

And the “SAW Eggs rating” value [5]?
Its value is 9.

And the CA rating [6]?
The CA rating was 0.

What about the TSM rating [7] of the same compound?
The TSM rating was 5.

What about the “SCR Eggs rating” value [8] of the same compound?
Its value is 9.

How did the SAW rating [1] turn out when `FC(F)Sc1nc2ncccc2s1` [Example 8, 2-[(Difluoromethyl)thio]thiazolo[4,5-b]pyridine] was run?
The SAW rating was 0.

And the mortality at 100 ppm [2, 9]?
The mortality at 100 ppm was 0%.

And the mortality at 100 ppm [2, 10]?
Its mortality at 100 ppm is 0%.

What about the WCR rating [4] of the same compound?
Its WCR rating is 9.

And the “SAW Eggs rating” value [5]?
Its value is 9.

And the CA rating [6]?
Its CA rating is 3.

What about the TSM rating [7] of the same compound?
The TSM rating was 8.

And the “SCR Eggs rating” value [8]?
Its value is 9.

Source: patent US6448262B1, “Pesticidal and parasiticidal use of 2-(substituted thio) thiazolo-[4,5-b]pyridine compounds” (American Cyanamid Company, priority 1998, dated 2002)
